From patent US12257287B2, “Glucagon-derived peptide and use thereof” (Tianjin Institute of Pharmaceutical Research Co., Ltd., priority 2018, dated 2025)
In brackets after ≈: the same amount, converted by molar mass. Marks after values point to notes of the source that are not given here. Numbered stars: 1 amine (or outer) side, 2 acyl side, 3 side chain; on linkers, the order of the positions; unused ones are H or OH. Square brackets hold non-standard residues; d marks the D form. Side chains are listed from the residue outwards. Peptide text beside a SMILES is read from it. * marks the point of attachment. C18 diacid = O=C(O)CCCCCCCCCCCCCCCCC(=O)*; γGlu = O=C(O)[C@H](CCC(=O)[*:2])N[*:1]; AEEA = NCCOCCOCC(=O)O; Aib = CC(C)(N)C(=O)O

Key:
[1] = target: T1, GC receptor (Homo sapiens, UniProt P47871); test: GC receptor mediated cAMP production in vitro (HEK293 cells transfected with GC receptor); assay type: cell-based; conditions: 20 min at 37° C., read-out: GCGR (nM EC50)
T1 construct: expressed in transfected cells; host or cells: HEK293 cells
T1 sequence (P47871 26-477): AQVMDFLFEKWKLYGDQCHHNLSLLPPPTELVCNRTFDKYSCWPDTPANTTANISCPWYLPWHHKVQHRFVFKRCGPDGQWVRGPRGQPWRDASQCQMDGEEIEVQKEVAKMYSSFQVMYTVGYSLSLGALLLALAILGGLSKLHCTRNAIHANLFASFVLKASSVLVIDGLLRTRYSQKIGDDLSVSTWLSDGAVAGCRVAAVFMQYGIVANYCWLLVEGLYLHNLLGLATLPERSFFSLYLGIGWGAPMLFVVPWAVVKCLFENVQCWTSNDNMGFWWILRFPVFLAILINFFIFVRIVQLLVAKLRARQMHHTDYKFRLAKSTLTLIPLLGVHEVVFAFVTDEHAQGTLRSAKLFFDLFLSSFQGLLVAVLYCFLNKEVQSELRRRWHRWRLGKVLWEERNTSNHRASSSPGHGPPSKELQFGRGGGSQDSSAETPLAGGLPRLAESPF
Source text: The medium was removed, the cells were lysed, and cAMP values were detected referring to the detection method described for the assay kit.

[2] = Effect on body weight of DIO mice after 14 days' administration; assay type: in vivo, C57BL/6J mice; conditions: for body weight reduction (in words): 14 days, conclusions on Tables 3 and 5
Source text: C57BL/6J mice (n=35), model group (n=30) were fed with H10060 high-fat diet to induce obesity (DIO), blank control group (n=5) were fed with standard diet, both for 34 weeks. One day before the first administration, the model group was randomly divided into groups according to their body weight (average body weight range 45.0-52.0 g), with 5 mice in each group, which respectively were model control group, positive control group (semaglutide), and test sample group (1 #-4 # are compound 1, compound 4, compound 6 and compound 22, respectively). The blank control group and model control group were given saline subcutaneously every day, while the positive control group and test sample group were administrated by subcutaneous injection every day for 14 days. The body weight of the animals was weighed and recorded every day, and the change rate of body weight (%) was calculated by comparing the body weight at the last administration day with the initial body weight. (initial body weight−last body weight)/initial body weight=body weight change rate (%). Calculation formula: […]
Calculated positive values indicate a decrease and negative values indicate an increase.
(§1) Methods are the same as that in Example 3, the test results of effects on body weight are shown in Table 5, and the effects on blood glucose are shown in Table 6. In the table, 5 #-9 # are compound 27, compound 35, compound 54, compound 57, and compound 66, respectively.

[3] = Glucose tolerance test in glucose-loaded DIO mice; assay type: in vivo; design: AUC reduction rate (%), Table 6: concentration or dose not given beside the values; conditions: for glucose tolerance / blood glucose lowering (in words): conclusions on Tables 4 and 6
Procedure: DIO mice fasted for 16 h, and 1 h after administration by subcutaneous injection, glucose solution (1 g/kg) was given intraperitoneally for glucose tolerance test. Blood glucose values were measured at 0.5, 1 and 1.5 h after glucose administration. The area under the blood glucose concentration curve (AUC) was calculated and compared with that of the model control group, and the blood glucose inhibition rate (%) was calculated.
as §1

[4] = Short-term administration: food intake and body weight in DIO mice; assay type: in vivo; conditions: 30 nmol/kg once every 24 h, twice, − decrease; for Rate of change in food intake (%): at 48 hours vs day before administration; for Body weight change: at 48 hours
Procedure: Method: diet-induced obese mice (DIO) with an average body weight of 52.5 g were divided into model control and test groups, 5 mice in each group. The test samples were dissolved in 10 mM PBS of pH7.4, injected once every 24 h at a dose of 30 nmol/kg, and administered twice. The model group was injected with solvent. Changes in food intake and body weight at 48 hours were measured, and the change rates were calculated compared to the day before administration.

[5] = physchem; assay type: physicochemical
[6] = Accelerated chemical stability in injection solvent system (HPLC-UV); assay type: physicochemical; conditions: 14 days, phosphate buffer pH 7.3 with Tween 80 and phenol, main peak area vs day 0
Procedure: The chemical stability of the compounds of the present invention in injection solution systems was evaluated by an accelerated stability test. Methods: an appropriate amount of compound of Example 1 was weighed, and dissolved in 10 mM pH8.5 sodium hydrogen phosphate buffer. The final pH value of the solution was adjusted to 7.3 with 0.1 N hydrochloric acid, and proper amounts of Tween 80 and phenol were added. The mixture was placed at 10° C. and 37° C. for 14 days, and detected by HPLC-UV. The main peak area was obtained by peak area normalization method, and the changes compared with day 0 were investigated. The HPLC detection method was the same as that in Example 6, and the mobile phase gradient was appropriately adjusted according to the situation of chromatographic peak separation.

[7] = pH 7.5, Solubility, pH 7.5, 10 mM phosphate buffer
[8] = pH 7.5, Solubility, pH 7.5, 20 mM phosphate buffer
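For Solubility in this document: compound added at 2 mg per mL of phosphate buffer, with the dissolved amount determined in the supernatant.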

SMILES	EC50 [1]	body weight change rate, Table 3 ([2]; DIO mice, subcutaneous injection every day for 14 days, (initial−last)/initial, positive values indicate a decrease)	AUC of blood glucose, Table 4 ([3]; DIO mice fasted 16 h, glucose 1 g/kg i.p. 1 h after s.c. administration, 0.5, 1, 1.5 h)	AUC reduction rate (%), Table 4 ([3]; blood glucose inhibition rate compared with model control group, DIO mice, glucose 1 g/kg i.p.)	Rate of change in food intake (%) [4]	Body weight change [4]	solubility [5, 7]	solubility [5, 8]	Change in purity % (10° C.) [6]	Change in purity % (37° C.) [6]	body weight change, Table 5 ([2]; Example 4, DIO mice, 14 days' administration, methods as in Example 3, positive values indicate a decrease, listed as 7#)	AUC of blood glucose, Table 6 ([3]; Example 4, DIO mice under glucose load, methods as in Example 3, listed as 7#)	AUC reduction rate (%), Table 6 ([3]; Example 4, compared with model control group, DIO mice under glucose load, listed as 7#)	body weight reduction (in words) ([2]; DIO mice)	glucose tolerance / blood glucose lowering (in words) ([3]; DIO mice)	solubility ([5]; pH 8, Solubility, pH 8.0, 10 mM phosphate buffer)	solubility ([5]; pH 8, Solubility, pH 8.0, 20 mM phosphate buffer)
CCCCCCCCCCCCCCCC(=O)N[C@@H](CCC(=O)N[C@@H](CCC(=O)NCCCC[C@H](NC(=O)[C@H](CC(=O)O)NC(=O)[C@H](CO)NC(=O)[C@@H](NC(=O)[C@H](Cc1ccccc1)NC(=O)[C@@H](NC(=O)CNC(=O)[C@H](CCC(N)=O)NC(=O)C(C)(C)NC(=O)[C@@H](N)Cc1c[nH]cn1)[C@@H](C)O)[C@@H](C)O)C(=O)N[C@@H](CO)C(=O)N[C@@H](CCCCN)C(=O)N[C@@H](Cc1ccc(O)cc1)C(=O)N[C@@H](CC(C)C)C(=O)N[C@@H](CCC(=O)O)C(=O)N[C@@H](CCC(=O)O)C(=O)N[C@@H](CCCNC(=N)N)C(=O)N[C@@H](C)C(=O)N[C@@H](C)C(=O)N[C@@H](CCCCN)C(=O)N[C@@H](CCC(=O)O)C(=O)N[C@@H](Cc1ccccc1)C(=O)N[C@H](C(=O)N[C@@H](C)C(=O)N[C@@H](Cc1c[nH]c2ccccc12)C(=O)N[C@@H](CC(C)C)C(=O)N[C@@H](CCC(=O)O)C(=O)N[C@@H](C)C(=O)NCC(=O)NCC(=O)N1CCC[C@H]1C(=O)N[C@@H](CO)C(=O)N[C@@H](CO)C(=O)NCC(N)=O)[C@@H](C)CC)C(=O)O)C(=O)O [Compound 1] (HELM PEPTIDE1{H.[Aib].Q.G.T.F.T.S.D.K.S.K.Y.L.E.E.R.A.A.K.E.F.I.A.W.L.E.A.G.G.P.S.S.G.[am]}|PEPTIDE2{[CCCCCCCCCCCCCCCC(=O)[*:2]].[gGlu].[gGlu]}$PEPTIDE1,PEPTIDE2,10:R3-3:R2$$$V2.0; N-terminus assumed)	0.0574 nM	28.3%	7.24 ± 1.33 mmol·h/L	65.8** %	−58%	-2.8 g	> 2000 µg/mL	> 2000 µg/mL	−1.4%	−5.2%	–	–	–	–	–	–	–
CCCCCCCCCCCCCCCC(=O)N[C@@H](CCC(=O)N[C@@H](CCC(=O)NCCCC[C@H](NC(=O)[C@H](CC(=O)O)NC(=O)[C@H](CO)NC(=O)[C@@H](NC(=O)[C@H](Cc1ccccc1)NC(=O)[C@@H](NC(=O)CNC(=O)[C@H](CCC(N)=O)NC(=O)C(C)(C)NC(=O)[C@@H](N)Cc1c[nH]cn1)[C@@H](C)O)[C@@H](C)O)C(=O)N[C@@H](CO)C(=O)N[C@@H](CCCCN)C(=O)N[C@@H](Cc1ccc(O)cc1)C(=O)N[C@@H](CC(C)C)C(=O)N[C@@H](CCC(=O)O)C(=O)N[C@@H](CCC(=O)O)C(=O)N[C@@H](CCCNC(=N)N)C(=O)N[C@@H](C)C(=O)N[C@@H](C)C(=O)N[C@@H](CCCCN)C(=O)N[C@@H](CCC(=O)O)C(=O)N[C@@H](Cc1ccccc1)C(=O)N[C@H](C(=O)N[C@@H](CCC(=O)O)C(=O)N[C@@H](Cc1c[nH]c2ccccc12)C(=O)N[C@@H](CC(C)C)C(=O)N[C@@H](CCC(=O)O)C(=O)NCC(=O)NCC(=O)N1CCC[C@H]1C(=O)N[C@@H](CO)C(=O)N[C@@H](CO)C(=O)NCC(N)=O)C(C)C)C(=O)O)C(=O)O [Compound 7] (HELM PEPTIDE1{H.[Aib].Q.G.T.F.T.S.D.K.S.K.Y.L.E.E.R.A.A.K.E.F.V.E.W.L.E.G.G.P.S.S.G.[am]}|PEPTIDE2{[CCCCCCCCCCCCCCCC(=O)[*:2]].[gGlu].[gGlu]}$PEPTIDE1,PEPTIDE2,10:R3-3:R2$$$V2.0; N-terminus assumed)	0.026 nM	–	–	–	–	–	–	–	–	–	21.45	7.26 ± 1.77 mmol·h/L	63.4** %	–	–	–	–
CC[C@H](C)[C@H](NC(=O)[C@H](Cc1ccccc1)NC(=O)[C@H](CCC(=O)O)NC(=O)[C@H](CCCCN)NC(=O)[C@H](C)NC(=O)[C@H](C)NC(=O)[C@H](CCCNC(=N)N)NC(=O)[C@H](CCC(=O)O)NC(=O)[C@H](CCC(=O)O)NC(=O)[C@H](CC(C)C)NC(=O)[C@H](Cc1ccc(O)cc1)NC(=O)[C@H](CCCCN)NC(=O)[C@H](CO)NC(=O)[C@H](CCCCNC(=O)COCCOCCNC(=O)COCCOCCNC(=O)CC[C@H](NC(=O)CCCCCCCCCCCCCCCCC(=O)O)C(=O)O)NC(=O)[C@H](CC(=O)O)NC(=O)[C@H](CO)NC(=O)[C@@H](NC(=O)[C@H](Cc1ccccc1)NC(=O)[C@@H](NC(=O)CNC(=O)[C@H](CCC(N)=O)NC(=O)C(C)(C)NC(=O)[C@@H](N)Cc1c[nH]cn1)[C@@H](C)O)[C@@H](C)O)C(=O)N[C@@H](C)C(=O)N[C@@H](Cc1c[nH]c2ccccc12)C(=O)N[C@@H](CC(C)C)C(=O)N[C@@H](CCC(=O)O)C(=O)N[C@@H](C)C(=O)NCC(=O)NCC(=O)N1CCC[C@H]1C(=O)N[C@@H](CO)C(=O)N[C@@H](CO)C(=O)NCC(N)=O [Compound 27] (H-H[Aib]QGTFTSDK([AEEA-AEEA-γGlu-C18 diacid])SKYLEERAAKEFIAWLEAGGPSSG-NH2; N-terminus assumed)	0.014 nM	–	–	–	−55%	-1.9 g	> 2000 µg/mL	> 2000 µg/mL	−1.8%	−4.6%	–	–	–	significantly reduced body weight	significantly improved glucose tolerance	–	–
CCCCCCCCCCCCCCCC(=O)N[C@@H](CCC(=O)N[C@@H](CCC(=O)NCCCC[C@H](NC(=O)[C@H](C)NC(=O)[C@H](CCCNC(=N)N)NC(=O)[C@H](CCCCN)NC(=O)[C@H](CCC(=O)O)NC(=O)[C@H](CC(=O)O)NC(=O)[C@H](CC(C)C)NC(=O)[C@H](Cc1ccc(O)cc1)NC(=O)[C@H](CCCCN)NC(=O)[C@H](CO)NC(=O)[C@H](Cc1ccc(O)cc1)NC(=O)[C@H](CC(=O)O)NC(=O)[C@H](CO)NC(=O)[C@@H](NC(=O)[C@H](Cc1ccccc1)NC(=O)[C@@H](NC(=O)CNC(=O)[C@H](CCC(N)=O)NC(=O)C(C)(C)NC(=O)[C@@H](N)Cc1c[nH]cn1)[C@@H](C)O)[C@@H](C)O)C(=O)N[C@@H](CCC(=O)O)C(=O)N[C@@H](Cc1ccccc1)C(=O)N[C@H](C(=O)N[C@@H](C)C(=O)N[C@@H](Cc1c[nH]c2ccccc12)C(=O)N[C@@H](CC(C)C)C(=O)N[C@@H](CCC(=O)O)C(=O)N[C@@H](C)C(=O)NCC(=O)NCC(=O)N1CCC[C@H]1C(=O)N[C@@H](CO)C(=O)N[C@@H](CO)C(=O)NCC(N)=O)[C@@H](C)CC)C(=O)O)C(=O)O [Compound 57] (HELM PEPTIDE1{H.[Aib].Q.G.T.F.T.S.D.Y.S.K.Y.L.D.E.K.R.A.K.E.F.I.A.W.L.E.A.G.G.P.S.S.G.[am]}|PEPTIDE2{[CCCCCCCCCCCCCCCC(=O)[*:2]].[gGlu].[gGlu]}$PEPTIDE1,PEPTIDE2,20:R3-3:R2$$$V2.0; N-terminus assumed)	0.081 nM	–	–	–	−71%	-2.6 g	1460 µg/mL (≈ 343 µM)	1310 µg/mL (≈ 308 µM)	−1.1%	−4.0%	–	–	–	significantly reduced body weight	significantly improved glucose tolerance	1840 µg/mL (≈ 432 µM)	1530 µg/mL (≈ 359 µM)
